Laboratory results from US20250243196A1, “CITRON KINASE INHIBITORS” (The Cleveland Clinic Foundation, priority 2021, published 2025).

Legend:
Experiment in all cases: KinaseProfiler panel
Type in all cases: biochemical
Settings in all cases: activity remaining
IRR(h) = IRR(h) (Homo sapiens (Human), UniProt P14616); parameters: dose or concentration left out as unconfirmed
IRAK1(h) = IRAK1(h) (Homo sapiens (Human), UniProt P51617); parameters: dose or concentration left out as unconfirmed
MSK1(h) = MSK1(h) (Homo sapiens (Human), UniProt O75582); parameters: dose or concentration left out as unconfirmed
Tie2 (h) = Tie2 (h) (Homo sapiens (Human), UniProt Q02763); parameters: dose or concentration left out as unconfirmed
Sequence of Tie2 (h) (Q02763 23-1124): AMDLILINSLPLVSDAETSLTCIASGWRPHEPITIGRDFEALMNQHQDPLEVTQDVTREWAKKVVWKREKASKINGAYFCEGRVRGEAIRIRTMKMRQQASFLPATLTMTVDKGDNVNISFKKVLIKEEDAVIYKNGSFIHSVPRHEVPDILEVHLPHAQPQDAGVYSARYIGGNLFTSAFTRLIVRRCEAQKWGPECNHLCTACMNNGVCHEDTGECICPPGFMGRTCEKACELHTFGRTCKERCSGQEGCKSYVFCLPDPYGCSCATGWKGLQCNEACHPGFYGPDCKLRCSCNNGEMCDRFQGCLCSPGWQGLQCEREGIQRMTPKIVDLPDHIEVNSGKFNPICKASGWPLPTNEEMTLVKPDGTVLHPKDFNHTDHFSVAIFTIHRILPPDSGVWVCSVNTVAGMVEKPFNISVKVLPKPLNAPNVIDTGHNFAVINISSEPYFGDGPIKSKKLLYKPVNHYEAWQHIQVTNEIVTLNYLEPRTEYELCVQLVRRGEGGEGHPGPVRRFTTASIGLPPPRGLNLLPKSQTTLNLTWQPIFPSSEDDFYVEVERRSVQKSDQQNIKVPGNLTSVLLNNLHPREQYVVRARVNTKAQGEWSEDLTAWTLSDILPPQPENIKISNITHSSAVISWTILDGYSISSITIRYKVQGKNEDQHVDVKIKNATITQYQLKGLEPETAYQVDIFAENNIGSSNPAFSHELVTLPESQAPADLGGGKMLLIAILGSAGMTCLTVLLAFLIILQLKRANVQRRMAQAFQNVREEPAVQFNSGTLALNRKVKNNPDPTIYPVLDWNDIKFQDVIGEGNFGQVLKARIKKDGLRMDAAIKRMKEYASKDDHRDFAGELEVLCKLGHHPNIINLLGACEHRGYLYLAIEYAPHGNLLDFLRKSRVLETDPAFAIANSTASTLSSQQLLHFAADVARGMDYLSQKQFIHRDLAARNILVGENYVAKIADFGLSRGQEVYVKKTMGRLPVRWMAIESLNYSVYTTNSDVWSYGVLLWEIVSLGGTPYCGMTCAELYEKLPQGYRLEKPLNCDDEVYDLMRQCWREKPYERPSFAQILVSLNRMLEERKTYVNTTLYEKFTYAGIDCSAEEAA

NEK4(h) = NEK4(h) (Homo sapiens (Human), UniProt P51957); parameters: dose or concentration left out as unconfirmed
RIPK1(h) = RIPK1(h) (Homo sapiens (Human), UniProt Q13546); parameters: dose or concentration left out as unconfirmed
CLIK1(h) = CLIK1(h) (Homo sapiens (Human), UniProt Q8TDR2); parameters: dose or concentration left out as unconfirmed
Rse(h) = Rse(h) (Homo sapiens (Human), UniProt Q06418); parameters: dose or concentration left out as unconfirmed
DYRK1B(h) = DYRK1B(h) (Homo sapiens (Human), UniProt Q9Y463); parameters: dose or concentration left out as unconfirmed
TrkB(h) = TrkB(h) (Homo sapiens (Human), UniProt Q16620); parameters: dose or concentration left out as unconfirmed
Fer(h) = Fer(h) (Homo sapiens (Human), UniProt P16591); parameters: dose or concentration left out as unconfirmed
SIK3(h) = SIK3(h) (Homo sapiens (Human), UniProt Q9Y2K2); parameters: dose or concentration left out as unconfirmed
LKB1(h) = LKB1(h) (Homo sapiens (Human), UniProt Q15831); parameters: dose or concentration left out as unconfirmed
cSRC(h) = cSRC(h) (Homo sapiens (Human), UniProt P12931); parameters: dose or concentration left out as unconfirmed
Sequence of cSRC(h) (P12931 whole entry, looked up): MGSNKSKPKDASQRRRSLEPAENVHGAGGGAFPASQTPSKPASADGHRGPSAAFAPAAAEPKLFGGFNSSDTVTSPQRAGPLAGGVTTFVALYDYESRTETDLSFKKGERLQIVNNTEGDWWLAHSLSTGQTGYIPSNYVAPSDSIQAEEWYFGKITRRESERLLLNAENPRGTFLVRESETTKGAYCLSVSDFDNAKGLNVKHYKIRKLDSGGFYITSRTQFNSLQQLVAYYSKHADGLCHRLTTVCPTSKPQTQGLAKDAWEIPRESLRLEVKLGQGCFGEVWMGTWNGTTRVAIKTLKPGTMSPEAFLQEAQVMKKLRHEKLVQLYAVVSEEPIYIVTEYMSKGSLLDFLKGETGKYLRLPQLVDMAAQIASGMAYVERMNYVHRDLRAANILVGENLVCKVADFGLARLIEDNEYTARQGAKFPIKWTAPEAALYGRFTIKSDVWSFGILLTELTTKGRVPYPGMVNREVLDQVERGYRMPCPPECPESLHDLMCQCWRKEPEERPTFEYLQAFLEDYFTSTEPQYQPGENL

ROCK-I(h) = ROCK-I(h) (Homo sapiens (Human), UniProt Q13464); parameters: dose or concentration left out as unconfirmed
Sequence of ROCK-I(h) (Q13464 whole entry): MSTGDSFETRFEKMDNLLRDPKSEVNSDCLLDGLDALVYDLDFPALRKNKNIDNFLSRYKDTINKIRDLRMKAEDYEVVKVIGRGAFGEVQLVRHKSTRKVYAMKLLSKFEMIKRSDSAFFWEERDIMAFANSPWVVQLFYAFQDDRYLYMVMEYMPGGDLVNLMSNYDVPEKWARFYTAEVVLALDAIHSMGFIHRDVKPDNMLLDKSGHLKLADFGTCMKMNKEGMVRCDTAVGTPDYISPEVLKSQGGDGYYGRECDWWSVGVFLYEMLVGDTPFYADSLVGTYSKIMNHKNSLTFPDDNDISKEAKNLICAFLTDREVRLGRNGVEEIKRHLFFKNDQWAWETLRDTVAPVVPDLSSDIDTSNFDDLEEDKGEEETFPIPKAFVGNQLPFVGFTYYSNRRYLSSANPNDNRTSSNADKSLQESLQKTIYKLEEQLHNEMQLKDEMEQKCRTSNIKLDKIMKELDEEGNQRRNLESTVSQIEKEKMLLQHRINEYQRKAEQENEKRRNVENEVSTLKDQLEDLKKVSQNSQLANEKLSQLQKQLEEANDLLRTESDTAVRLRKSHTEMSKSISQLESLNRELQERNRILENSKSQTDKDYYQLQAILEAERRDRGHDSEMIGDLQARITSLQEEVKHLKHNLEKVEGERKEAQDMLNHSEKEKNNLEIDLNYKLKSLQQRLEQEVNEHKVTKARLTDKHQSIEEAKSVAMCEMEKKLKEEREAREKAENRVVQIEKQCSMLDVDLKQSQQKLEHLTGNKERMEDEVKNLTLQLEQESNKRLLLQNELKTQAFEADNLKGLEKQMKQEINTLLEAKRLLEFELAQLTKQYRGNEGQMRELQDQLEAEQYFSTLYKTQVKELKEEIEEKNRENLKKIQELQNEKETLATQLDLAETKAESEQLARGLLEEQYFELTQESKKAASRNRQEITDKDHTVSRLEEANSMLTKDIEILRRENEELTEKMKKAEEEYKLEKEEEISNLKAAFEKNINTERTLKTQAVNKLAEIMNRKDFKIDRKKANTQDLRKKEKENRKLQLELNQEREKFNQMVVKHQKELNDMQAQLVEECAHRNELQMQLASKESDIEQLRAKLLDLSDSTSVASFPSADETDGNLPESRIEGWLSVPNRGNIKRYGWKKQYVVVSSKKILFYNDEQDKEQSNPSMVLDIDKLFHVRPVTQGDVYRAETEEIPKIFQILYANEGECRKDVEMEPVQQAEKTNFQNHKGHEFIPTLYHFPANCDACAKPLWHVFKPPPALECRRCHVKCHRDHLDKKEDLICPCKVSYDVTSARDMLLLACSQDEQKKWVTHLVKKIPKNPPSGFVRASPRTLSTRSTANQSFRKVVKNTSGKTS

PAK2(h) = PAK2(h) (Homo sapiens (Human), UniProt Q13177); parameters: dose or concentration left out as unconfirmed
EphA5(h) = EphA5(h) (Homo sapiens (Human), UniProt P54756); parameters: dose or concentration left out as unconfirmed
ErbB4(h) = ErbB4(h) (Homo sapiens (Human), UniProt Q15303); parameters: dose or concentration left out as unconfirmed
TAF1L(h) = TAF1L(h) (Homo sapiens (Human), UniProt Q8IZX4); parameters: dose or concentration left out as unconfirmed
Snk(h) = Snk(h) (Homo sapiens (Human), UniProt Q9NYY3); parameters: dose or concentration left out as unconfirmed
MARK1(h) = MARK1(h) (Homo sapiens (Human), UniProt Q9P0L2); parameters: dose or concentration left out as unconfirmed
CDK16/cyclinY(h) = CDK16/cyclinY(h) (Homo sapiens (Human), UniProt Q00536); parameters: dose or concentration left out as unconfirmed
Sequence of CDK16/cyclinY(h) (Q00536 whole entry): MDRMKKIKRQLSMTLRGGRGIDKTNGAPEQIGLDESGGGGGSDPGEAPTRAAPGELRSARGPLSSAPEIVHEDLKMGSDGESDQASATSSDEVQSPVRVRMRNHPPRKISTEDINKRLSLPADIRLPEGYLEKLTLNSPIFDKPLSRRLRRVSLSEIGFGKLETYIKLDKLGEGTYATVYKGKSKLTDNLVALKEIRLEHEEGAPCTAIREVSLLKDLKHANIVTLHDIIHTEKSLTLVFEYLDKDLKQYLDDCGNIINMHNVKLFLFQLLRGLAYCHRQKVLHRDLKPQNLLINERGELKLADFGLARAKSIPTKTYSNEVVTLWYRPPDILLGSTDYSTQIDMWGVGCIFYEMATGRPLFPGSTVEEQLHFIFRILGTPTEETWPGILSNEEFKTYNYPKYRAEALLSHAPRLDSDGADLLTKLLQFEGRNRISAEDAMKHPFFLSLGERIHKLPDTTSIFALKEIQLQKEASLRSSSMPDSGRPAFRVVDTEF
Sequence of CDK16/cyclinY(h) (Q8ND76 whole entry partner): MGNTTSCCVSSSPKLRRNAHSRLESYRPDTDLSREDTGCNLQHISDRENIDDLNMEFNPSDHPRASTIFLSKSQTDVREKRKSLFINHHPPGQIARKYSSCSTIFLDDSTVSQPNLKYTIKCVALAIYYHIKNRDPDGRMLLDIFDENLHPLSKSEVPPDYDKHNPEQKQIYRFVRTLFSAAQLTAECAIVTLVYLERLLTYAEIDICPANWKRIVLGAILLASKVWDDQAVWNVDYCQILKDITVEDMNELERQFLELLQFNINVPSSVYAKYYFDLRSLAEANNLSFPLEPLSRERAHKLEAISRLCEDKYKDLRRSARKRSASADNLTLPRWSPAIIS

Cdc7/cyclinB1(h) = Cdc7/cyclinB1(h) (Homo sapiens, UniProt O00311); parameters: dose or concentration left out as unconfirmed
TTBK2(h) = TTBK2(h) (Homo sapiens (Human), UniProt Q6IQ55); parameters: dose or concentration left out as unconfirmed
CK1ε(h) = CK1ε(h) (Homo sapiens (Human), UniProt P49674); parameters: dose or concentration left out as unconfirmed
MOK(h) = MOK(h) (Homo sapiens (Human), UniProt Q9UQ07)
Sequence of MOK(h) (Q9UQ07 whole entry): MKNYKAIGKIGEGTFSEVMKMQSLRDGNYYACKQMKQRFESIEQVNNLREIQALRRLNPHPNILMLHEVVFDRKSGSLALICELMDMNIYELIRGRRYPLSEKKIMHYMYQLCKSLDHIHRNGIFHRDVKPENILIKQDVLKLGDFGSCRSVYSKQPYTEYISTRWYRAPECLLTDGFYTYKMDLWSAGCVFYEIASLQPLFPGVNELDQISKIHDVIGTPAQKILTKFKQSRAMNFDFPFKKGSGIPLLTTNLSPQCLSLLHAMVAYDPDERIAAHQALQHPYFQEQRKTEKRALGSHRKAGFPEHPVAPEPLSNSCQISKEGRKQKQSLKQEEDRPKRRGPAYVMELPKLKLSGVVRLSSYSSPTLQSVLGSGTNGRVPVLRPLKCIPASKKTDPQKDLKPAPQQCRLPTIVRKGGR

Lck(h) activated = Lck(h) activated (Homo sapiens (Human), UniProt P06239); parameters: dose or concentration left out as unconfirmed
Sequence of Lck(h) activated (P06239 whole entry): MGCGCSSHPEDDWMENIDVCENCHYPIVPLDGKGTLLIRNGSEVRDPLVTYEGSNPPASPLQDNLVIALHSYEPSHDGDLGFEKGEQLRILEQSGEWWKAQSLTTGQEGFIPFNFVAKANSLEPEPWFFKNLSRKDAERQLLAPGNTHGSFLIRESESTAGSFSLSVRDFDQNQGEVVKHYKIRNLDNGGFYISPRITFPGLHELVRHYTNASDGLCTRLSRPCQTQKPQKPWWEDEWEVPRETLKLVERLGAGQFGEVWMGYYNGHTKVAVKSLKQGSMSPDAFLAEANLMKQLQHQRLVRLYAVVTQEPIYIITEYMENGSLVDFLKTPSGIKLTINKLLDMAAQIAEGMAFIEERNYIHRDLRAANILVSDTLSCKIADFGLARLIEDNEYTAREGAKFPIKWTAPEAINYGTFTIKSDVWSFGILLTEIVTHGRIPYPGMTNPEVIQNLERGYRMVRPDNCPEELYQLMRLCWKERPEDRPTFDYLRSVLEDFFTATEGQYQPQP

p70S6K(h) = p70S6K(h) (Homo sapiens (Human), UniProt P23443); parameters: dose or concentration left out as unconfirmed
EphA2(h) = EphA2(h) (Homo sapiens (Human), UniProt P29317); parameters: dose or concentration left out as unconfirmed
ATR/ATRIP(h) = ATR/ATRIP(h) (Homo sapiens (Human), UniProt Q13535); parameters: dose or concentration left out as unconfirmed
ACTR2(h) = ACTR2(h) (Homo sapiens (Human), UniProt P27037); parameters: dose or concentration left out as unconfirmed
SAPK2b(h) = SAPK2b(h) (Homo sapiens (Human), UniProt Q15759); parameters: dose or concentration left out as unconfirmed
Fes(h) = Fes(h) (Homo sapiens (Human), UniProt P07332); parameters: dose or concentration left out as unconfirmed

Cc1cc2c(-c3ccc(NC(=O)[C@H](N)CC(C)(C)C)cc3C)ccnc2[nH]1 [Compound F-90, (2R)-2-Amino-4,4-dimethyl-N-[3-methyl-4-(2-methyl-1H-pyrrolo[2,3-b]pyridin-4-yl)phenyl]pentanamide]
% Activity (IRR(h)): 110%
% Activity (IRAK1(h)): 95%
% Activity (MSK1(h)): 111%
% Activity (Tie2 (h)): 99%
% Activity (NEK4(h)): 90%
% Activity (RIPK1(h)): 84%
% Activity (CLIK1(h)): 97%
% Activity (Rse(h)): 129%
% Activity (DYRK1B(h)): 108%
% Activity (TrkB(h)): 84%
% Activity (Fer(h)): 103%
% Activity (SIK3(h)): 105%
% Activity (LKB1(h)): 99%
% Activity (cSRC(h)): 93%
% Activity (ROCK-I(h)): 96%
% Activity (PAK2(h)): 95%
% Activity (EphA5(h)): 89%
% Activity (ErbB4(h)): 94%
% Activity (TAF1L(h)): 101%
% Activity (Snk(h)): 94%
% Activity (MARK1(h)): 106%
% Activity (CDK16/cyclinY(h)): 98%
% Activity (Cdc7/cyclinB1(h)): 75%
% Activity (TTBK2(h)): 94%
% Activity (CK1ε(h)): 96%
% Activity (MOK(h)): 90%
% Activity (Lck(h) activated): 119%
% Activity (p70S6K(h)): 93%
% Activity (EphA2(h)): 95%
% Activity (ATR/ATRIP(h)): 110%
% Activity (ACTR2(h)): 96%
% Activity (SAPK2b(h)): 90%
% Activity (Fes(h)): 111%
